Patent publication US7070928B2, “Evolving new molecular function” (President and Fellows of Harvard College, priority 2001, dated 2006)
pIC50: −log10 of the molar value.

How the values were obtained:
Taq DNA polymerase = Taq DNA polymerase (Thermus aquaticus, UniProt P19821); assay: acceptance of modified nucleotide triphosphates in PCR; format: biochemical; conditions: 30 PCR cycles, pUC19 template DNA, three natural deoxynucleotide triphosphates, gel electrophoresis (FIG. 51)
Description: The ability of thermostable DNA polymerases suitable for PCR amplification to accept these modified nucleotide triphosphates containing metal-binding functionality. Non-natural nucleotide triphosphates were purified by ion exchange HPLC and added to PCR reactions containing Taq DNA polymerase, three natural deoxynucleotide triphosphates, pUC19 template DNA, and two DNA primers. Primers were chosen to generate PCR products ranging from 50 to 200 base pairs in length. Control PCR reactions contained the four natural deoxynucleotide triphosphates and no non-natural nucleotides. PCR reactions were analyzed by agarose or denaturing acrylamide gel electrophoresis. […] Previous findings on the acceptance of 7 by Taq DNA polymerase are in conflict, with-both non-acceptance (K. Sakthivel et al. Angew. Chem. Int. Ed. Engl. 1998, 37, 2872–2875) and acceptance (S. E. Lee et al. Nucleic Acids Res. 2001, 29, 1565–73) reported.

αvβ3 integrin receptor = αvβ3 integrin receptor (Homo sapiens, UniProt P05106+P06756); conditions: benchmark αvβ3 integrin antagonists; cited from earlier work
Sequence of αvβ3 integrin receptor (P06756 31-889 limits assumed): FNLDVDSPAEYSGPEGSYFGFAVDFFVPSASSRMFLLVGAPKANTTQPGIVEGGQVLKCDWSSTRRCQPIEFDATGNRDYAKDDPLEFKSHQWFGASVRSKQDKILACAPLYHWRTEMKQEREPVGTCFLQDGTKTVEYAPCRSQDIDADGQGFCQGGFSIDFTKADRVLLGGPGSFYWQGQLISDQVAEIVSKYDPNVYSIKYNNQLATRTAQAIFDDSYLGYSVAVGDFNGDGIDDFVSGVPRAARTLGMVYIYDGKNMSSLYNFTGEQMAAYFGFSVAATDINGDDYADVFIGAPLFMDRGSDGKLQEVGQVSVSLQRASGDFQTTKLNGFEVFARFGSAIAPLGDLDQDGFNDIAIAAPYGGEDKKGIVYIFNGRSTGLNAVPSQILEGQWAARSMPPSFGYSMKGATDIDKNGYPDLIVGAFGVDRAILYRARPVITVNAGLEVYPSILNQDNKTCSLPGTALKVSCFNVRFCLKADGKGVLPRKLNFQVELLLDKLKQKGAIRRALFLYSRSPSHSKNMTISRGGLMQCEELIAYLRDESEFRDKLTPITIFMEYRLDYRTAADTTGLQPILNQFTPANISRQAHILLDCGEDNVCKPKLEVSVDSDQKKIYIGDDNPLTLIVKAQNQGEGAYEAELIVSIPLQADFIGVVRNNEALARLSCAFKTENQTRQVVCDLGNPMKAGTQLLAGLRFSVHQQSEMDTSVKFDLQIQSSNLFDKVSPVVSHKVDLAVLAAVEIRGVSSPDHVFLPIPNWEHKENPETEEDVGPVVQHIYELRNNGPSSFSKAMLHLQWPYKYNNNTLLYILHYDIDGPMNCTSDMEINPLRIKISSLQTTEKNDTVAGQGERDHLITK
Sequence of αvβ3 integrin receptor (P06756 891-1048 partner limits assumed): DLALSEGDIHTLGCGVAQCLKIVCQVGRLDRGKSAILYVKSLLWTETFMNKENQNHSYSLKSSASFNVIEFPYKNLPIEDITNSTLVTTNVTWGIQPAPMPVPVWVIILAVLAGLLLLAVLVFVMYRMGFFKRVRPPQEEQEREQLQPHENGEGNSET
Sequence of αvβ3 integrin receptor (P05106 27-788): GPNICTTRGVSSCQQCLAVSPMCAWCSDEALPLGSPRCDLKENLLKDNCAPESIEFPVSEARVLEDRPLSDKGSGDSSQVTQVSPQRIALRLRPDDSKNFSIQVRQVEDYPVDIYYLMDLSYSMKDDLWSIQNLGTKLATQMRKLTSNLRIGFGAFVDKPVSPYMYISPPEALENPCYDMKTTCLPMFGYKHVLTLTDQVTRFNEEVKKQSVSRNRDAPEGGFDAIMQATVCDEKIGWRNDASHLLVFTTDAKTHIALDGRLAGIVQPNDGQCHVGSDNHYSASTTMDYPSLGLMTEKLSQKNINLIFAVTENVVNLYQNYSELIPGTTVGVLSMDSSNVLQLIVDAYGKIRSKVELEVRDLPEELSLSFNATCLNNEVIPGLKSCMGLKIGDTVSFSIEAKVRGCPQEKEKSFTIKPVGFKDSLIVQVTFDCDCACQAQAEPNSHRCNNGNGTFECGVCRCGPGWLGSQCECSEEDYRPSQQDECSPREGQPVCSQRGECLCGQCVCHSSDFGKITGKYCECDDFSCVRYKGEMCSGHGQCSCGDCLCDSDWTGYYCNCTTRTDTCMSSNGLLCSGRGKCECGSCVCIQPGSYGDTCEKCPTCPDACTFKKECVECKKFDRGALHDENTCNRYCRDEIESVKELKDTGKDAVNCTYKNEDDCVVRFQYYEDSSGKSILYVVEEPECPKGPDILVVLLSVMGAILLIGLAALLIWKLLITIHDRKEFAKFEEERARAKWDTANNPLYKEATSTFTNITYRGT

Sequence of Taq DNA polymerase (P19821 whole entry): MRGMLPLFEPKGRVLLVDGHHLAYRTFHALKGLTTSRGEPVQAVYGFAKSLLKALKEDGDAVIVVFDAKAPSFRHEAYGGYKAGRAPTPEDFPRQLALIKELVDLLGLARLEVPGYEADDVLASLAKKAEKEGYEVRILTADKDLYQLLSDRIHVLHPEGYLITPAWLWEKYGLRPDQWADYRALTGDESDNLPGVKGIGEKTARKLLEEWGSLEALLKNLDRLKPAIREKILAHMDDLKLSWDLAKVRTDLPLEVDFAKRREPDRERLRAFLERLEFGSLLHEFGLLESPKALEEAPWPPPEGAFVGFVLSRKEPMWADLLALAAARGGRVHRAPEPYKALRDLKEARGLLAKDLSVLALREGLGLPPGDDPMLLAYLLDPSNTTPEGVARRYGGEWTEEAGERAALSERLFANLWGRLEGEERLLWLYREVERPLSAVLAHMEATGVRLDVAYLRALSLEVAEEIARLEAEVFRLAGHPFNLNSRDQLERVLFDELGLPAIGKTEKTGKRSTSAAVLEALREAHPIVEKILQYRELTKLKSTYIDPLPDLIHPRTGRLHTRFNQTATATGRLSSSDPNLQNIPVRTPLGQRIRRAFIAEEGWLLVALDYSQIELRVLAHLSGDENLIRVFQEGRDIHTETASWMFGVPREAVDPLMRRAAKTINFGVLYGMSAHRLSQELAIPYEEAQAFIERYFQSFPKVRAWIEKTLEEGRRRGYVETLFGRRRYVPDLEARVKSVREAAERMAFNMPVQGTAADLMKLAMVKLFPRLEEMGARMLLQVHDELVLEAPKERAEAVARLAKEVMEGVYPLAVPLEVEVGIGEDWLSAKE

| Compound | incorporation by Taq DNA polymerase (Taq DNA polymerase) | pIC50 (αvβ3 integrin receptor) |
| --- | --- | --- |
| O=C(NCC=Cc1cn(C2CC(O)C(COP(=O)(O)OP(=O)(O)OP(=O)(O)O)O2)c(=O)[nH]c1=O)C(F)(F)F (centres unmarked) [triphosphate of 23] | not an efficient polymerase substrate |  |
| GRGDSPK [linear peptide, benchmark αvβ3 integrin antagonist] |  | 6.68 |
